Reference: patent US9045731B2, “Compositions and methods for improving the functional efficacy of stem cell-derived cardiomyocytes” (The Regents of the University of California, priority 2007, dated 2015)

Tests used:
HES2-CMs = assay: Cytosolic Ca2+ transients (Fura-2/AM spectrofluorometry) in HES2-CMs; type: cell-based, human
Method: Briefly, HES2 cells were grown on mitomycin C- (Sigma; St Louis, Mo., USA) inactivated mouse embryonic fibroblasts (mEFs). Culture medium consisted of DMEM (Invitrogen, Carlsbad, Calif.) containing 2 mM L-glutamine, insulin-transferrin-selenium, non-essential amino acids, 90 μM β-mercaptoethanol, and 20% FBS (Hyclone, Logan, Utah). HES2 cells were passaged manually (“cut-and-paste”), by cutting colony into pieces and removing them from the mEFs using dispase (8 mg/mL, Invitrogen, Carlsbad, Calif.). For cardiac differentiation, HES2 cells were removed from the mEFs, resuspended and broken into pieces, followed by co-culturing with the immortalized endoderm-like END2 cells at 100% confluence (6).
(§1) For isolating hESC-CMs, beating outgrowths were microsurgically dissected from H1- (7+11 to 17 or 18-24 days) and HES2- (18-24 days) derived EBs by a glass knife, (4) followed by incubation in collagenase II (1 mg/mL) at 37° C. for 30 min. The isolated cells were incubated with KB solution containing (mM): 85 KCl, 30 K2HPO4, 5 MgSO4, 1 EGTA, 2 Na2-ATP, 5 pyruvic acid, 5 creatine, 20 taurine, 20 d-glucose, at room temperature for 30 min. After the cells were plated on laminin-coated glass coverslips for 1 hr at 37° C., regular culture media was added. […] Calcium recordings from cell clusters containing 10-15 cells were performed within 48 hrs after plating.
(§2) A spectrofluorometric method with Fura-2/AM as the Ca^2+ indicator was used for measuring [Ca^2+]i. FLV- or hESC-CMs were incubated with 5 μM Fura-2/AM and 0.2% pluronic F-127 for 30 min at 37° C. Fluorescent signals obtained upon excitation at 340 nm (F340) and 380 nm (F380) were recorded from cells perfused with Tyrode solution containing (mM): 140 NaCl, 5.0 KCl, 1.0 CaCl2, 1.0 MaCl2, 10.0 glucose and 10 HEPES (pH 7.4) unless otherwise indicated. Data were analyzed using the Ionwizard software (Version 5, IonOptix) to generate the Ca transient parameters reported in this study. The F340/F380 ratio was used to represent cytosolic [Ca^2+]i. To induce cytoplasmic Ca^2+ transients, CMs were stimulated by electrically pulsing from 0.1 to 0.5 Hz or by caffeine application as indicated. For electrical stimulations, Ca^2+ transients were recorded and analyzed after a series of depolarizations that enabled each transient to fully decay so as to establish a steady-state SR content.

hESC-CMs = assay: Cytosolic Ca2+ transients (Fura-2/AM), HES2- and H1-CMs taken together; type: cell-based, human; settings: for Effect on Vmax, upstroke of electrically evoked Ca2+ transients: 10 μM ryanodine, 30 min
Method: as §1, §2

H1-CMs [1] = assay: Cytosolic Ca2+ transients (Fura-2/AM) in adenovirus-transduced H1-CMs; type: cell-based, human; settings: for Electrically evoked Ca2+ transient amplitude after ryanodine / Upstroke velocity of Ca2+ transients after ryanodine: 10 μM ryanodine, 30 minutes
Text: Human cardiac calsequestrin 2 (sc119365, Origene technologies, MD) was cloned and ligated into adenovirus shuttle vectors pAdCMV-IRES-GFP using primers creating Bmt and Spe I sites (pAdCMV-CSQ-IRES-GFP). IRES, internal ribosomal entry site, allows the simultaneous translation of CSQ and the fluorescence marker (GFP) with a single transcript. The truncated CSQ mutant was constructed in pAdCMV-IRES-GFP by deleting 817 bp (53 bp-869 bp) using the two EcoN I sites inside CSQ's coding sequence (Ad-CSQΔ). The resulting product after Hind III cutting was self-ligated to produce another control of pAdCMV-GFP (Ad-GFP). Adenoviruses were generated by Cre-lox recombination of purified ψ5 viral DNA and shuttle vector DNA using Cre4 cells as described previously (56).
For isolating H1-CMs, beating outgrowths were microsurgically dissected from H1- derived EBs (7+14 to 7+21 days) by a glass knife, followed by incubation in collagenase II (1 mg/mL) at 37° C. for 30 min. The isolated cells were incubated with KB solution containing (mM): 85 KCl, 30 K2HPO4, 5 MgSO4, 1 EGTA, 2 Na2-ATP, 5 pyruvic acid, 5 creatine, 20 taurine, 20 d-glucose, at room temperature for 30 min. After the cells were plated on gelatin-coated glass coverslips for 1 hr at 37° C., regular culture media was added. After 48 hours, plated H1-CMs were infected with adenoviruses for 3 hours. Recordings were performed within 24-48 hrs after infection.
A spectrofluorometric method with Fura-2/AM as the Ca^2+ indicator was used for measuring [Ca^2+]i. H1-CMs were incubated with 10 μM Fura-2/AM and 0.2% pluronic F-127 for 30 min at 37° C. Fluorescent signals obtained upon excitation at 340 nm (F340) and 380 nm (F380) were recorded from cells perfused with Tyrode solution containing (mM): 140 NaCl, 5.0 KCl, 1.0 CaCl2, 1.0 MaCl2, 10.0 glucose and 10 HEPES (pH 7.4) unless otherwise indicated. Data were analyzed using the Ionwizard software (Version 5, IonOptix) to generate the Ca^2+ transient parameters reported in this study. The F340/F380 ratio was used to represent cytosolic [Ca^2+]i. To induce cytoplasmic Ca^2+ transients, CMs were stimulated by electrically pulsing from 0.1 to 0.5 Hz or by caffeine application as indicated.
For electrical stimulations, Ca^2+ transients were recorded and analyzed after a series of depolarizations that enabled each transient to fully decay so as to establish a steady-state SR content.

FLV-CMs = assay: Cytosolic Ca2+ transients (Fura-2/AM spectrofluorometry) in human fetal left ventricular CMs; type: cell-based; settings: caffeine 10 mM, brief exposure, no Ca2+ in extracellular bath
Text: Human FLV-CMs and adult-CMs were isolated and experimented according to protocols approved by the UC Davis IUPAC and IRB (Protocol #200614787-1 and # 200614594-1). Briefly, fetal human hearts (16-18 weeks, Advanced Bioscience Resources, INC. Alameda, Calif.) and adult human hearts (18+ years, National Disease Research Interchange, Philadelphia, Pa.) were perfused with enzymatic solutions using a customized Langendorff apparatus as previously described (19). […]
as §2, with “FLV- or hESC-CMs were incubated with 5 μM Fura-2/AM and 0.2% pluronic F-127 for 30 min at 37° C.” left out, “The F340/F380 ratio was used to represent cytosolic [Ca^2+]i. To induce cytoplasmic Ca^2+ transients, CMs were stimulated by electrically pulsing from 0.1 to 0.5 Hz or by caffeine application as indicated.” left out

H1-CMs [2] = assay: Cytosolic Ca2+ transients (Fura-2/AM spectrofluorometry) in H1-CMs; type: cell-based, human
Method: H1 cells were grown on irradiated mEFs from 13.5-day embryos of CF-1 mice and propagated as previously described (3). The culture medium consisted of 80% Dulbecco's modified Eagle's medium, 20% knockout serum replacement, 4 ng/ml basic fibroblast growth factor, 1 mmol/L glutamine, 0.1 mmol/L β-mercaptoethanol, and 1% nonessential amino acid solution (all from Gibco-BRL, Gaithersburg, Md.). To induce the formation of embryoid bodies (EBs), hESCs were detached using 1 mg/mL type IV collagenase (Gibco-BRL) and transferred to Petri dishes containing 80% Dulbecco's modified Eagle's medium, 20% fetal bovine serum defined (HyClone, Logan, Utah), 1 mmol/L glutamine, and 1% nonessential amino acid stock in the absence of β-FGF. The aggregates were cultured in suspension for 7 days, followed by plating on gelatin-coated (0.1%; Sigma-Aldrich, St. Louis) 6-well plates to form hESC-CMs.
as §1, §2

Cn1c(=O)c2c(ncn2C)n(C)c1=O [caffeine]
Percentage of cells with caffeine-induced Ca2+ transients (caffeine-responsive cells) (HES2-CMs; caffeine 10 mM, brief exposure, no Ca2+ in extracellular bath, HES2-CMs): 40% | Percentage of cells with caffeine-induced large Ca2+ transients (hESC-CMs; hESC-CMs (HES2- and H1-CMs pooled)): ~38% | Cytosolic Ca2+ response to caffeine (H1-CMs [1]; caffeine 10 mM, brief exposure, transduced H1-CMs): robust cytosolic Ca^2+ increase | Percentage of cells with caffeine-induced rise in cytosolic Ca2+ (caffeine-responsive cells) (FLV-CMs): 65% | Percentage of cells with caffeine-induced Ca2+ transients (caffeine-responsive cells) (H1-CMs [2]; caffeine 10 mM, brief exposure, no Ca2+ in extracellular bath, H1-CMs): 35%

C/C=C(/C)C(=O)O[C@H]1C(C)=C2[C@H]([C@@H]1OC(=O)CCCCCCC)[C@@](C)(OC(C)=O)C[C@H](OC(=O)CCC)[C@@]1(O)[C@H]2OC(=O)[C@@]1(C)O [thapsigargin]
Effect on Vmax, decay of electrically evoked Ca2+ transients (HES2-CMs; thapsigargin 0.5 μM, 15 min, HES2-CMs): significantly slowed | Effect on electrically evoked Ca2+ transient amplitude (HES2-CMs; thapsigargin 0.5 μM, 15 min, caffeine-responsive HES2-CMs): significantly reduced | Decay velocity of Ca2+ transients after thapsigargin (H1-CMs [1]; thapsigargin (0.5 μM), 15 min, H1-CMs transduced with Ad-CSQ): 61% | Decay velocity of Ca2+ transients after thapsigargin (H1-CMs [1]; thapsigargin (0.5 μM), 15 min, H1-CMs transduced with Ad-CSQΔ): 65% | Decay velocity of Ca2+ transients after thapsigargin (H1-CMs [1]; thapsigargin (0.5 μM), 15 min, H1-CMs transduced with Ad-GFP): 69% | Ca2+ transient amplitude after thapsigargin (H1-CMs [1]; thapsigargin (0.5 μM), 15 min, transduced H1-CMs (all three groups)): unchanged | Effect on Vmax, decay of electrically evoked Ca2+ transients (H1-CMs [2]; thapsigargin 0.5 μM, 15 min, H1-CMs): significantly slowed | Effect on electrically evoked Ca2+ transient amplitude (H1-CMs [2]; thapsigargin 0.5 μM, 15 min, caffeine-responsive H1-CMs): significantly reduced

ryanodine
Effect on electrically evoked Ca2+ transient amplitude (HES2-CMs; 10 μM ryanodine, 30 min, caffeine-insensitive HES2-CMs): not affected | Reduction of electrically evoked Ca2+ transient amplitude (HES2-CMs; 10 μM ryanodine, 30 min, caffeine-responsive HES2-CMs): 37±4.8% | Effect on Vmax, upstroke of electrically evoked Ca2+ transients (hESC-CMs; caffeine-insensitive cells): not | Effect on Vmax, upstroke of electrically evoked Ca2+ transients (hESC-CMs; caffeine-responsive cells): significantly slowed | Electrically evoked Ca2+ transient amplitude after ryanodine (H1-CMs [1]; H1-CMs transduced with Ad-CSQ): 78% | Upstroke velocity of Ca2+ transients after ryanodine (H1-CMs [1]; H1-CMs transduced with Ad-CSQ): 67% | Electrically evoked Ca2+ transient amplitude after ryanodine (H1-CMs [1]; H1-CMs transduced with Ad-CSQΔ): 84% | Upstroke velocity of Ca2+ transients after ryanodine (H1-CMs [1]; H1-CMs transduced with Ad-CSQΔ): 62% | Electrically evoked Ca2+ transient amplitude after ryanodine (H1-CMs [1]; H1-CMs transduced with Ad-GFP): 80% | Upstroke velocity of Ca2+ transients after ryanodine (H1-CMs [1]; H1-CMs transduced with Ad-GFP): 64% | Effect on electrically evoked Ca2+ transient amplitude (H1-CMs [2]; 10 μM ryanodine, 30 min, caffeine-insensitive H1-CMs): not affected | Reduction of electrically evoked Ca2+ transient amplitude (H1-CMs [2]; 10 μM ryanodine, 30 min, caffeine-responsive H1-CMs): 18±4.3%
